Converted amounts (≈) assume the structure as drawn.
Key:
[1] = system: S. pneumoniae ATCC 51916; experiment: MIC, S. pneumoniae; type: cell-based; conditions: S. pneumoniae
[2] = system: S. aureus ATCC 13709; experiment: MIC, antibacterial potency, S. aureus; type: cell-based; conditions: S. aureus

Row | SMILES | MIC Spn52 [1] | MIC, SA [2]
1 | CCc1[nH]c2nc(Sc3cnc4nccnc4c3)nc(N3CC(CNC(=O)[C@@H]4CCC(=O)N4)C3)c2c1Cl [700,520] | 16 µg/mL (≈ 29.7 µM) | 8 µg/mL (≈ 14.9 µM)
2 | CCc1[nH]c2nc(Sc3cnc4nccnc4c3)nc(N3CC(CNC(=O)C4CCC(O)CC4)C3)c2c1Cl (stereo not shown) [700,521] | 2 µg/mL (≈ 3.62 µM) | 1 µg/mL (≈ 1.81 µM)
3 | CCc1[nH]c2nc(Sc3cnc4nccnc4c3)nc(N3CC(CNC(=O)C4CCCO4)C3)c2c1Cl (stereo not shown) [700,522] | 2 µg/mL (≈ 3.81 µM) | ≤ 0.5 µg/mL
4 | CCc1[nH]c2nc(Sc3cnc4nccnc4c3)nc(N3CC(CNC(=O)COCCOCCOC)C3)c2c1Cl [700,523] | 4 µg/mL (≈ 6.81 µM) | 2 µg/mL (≈ 3.41 µM)
5 | CCc1[nH]c2nc(Sc3cnc4nccnc4c3)nc(N3CC(CNC(=O)c4cn(C)nc4C(F)(F)F)C3)c2c1Cl [700,524] | ≤ 0.5 µg/mL | ≤ 0.5 µg/mL
6 | CCc1[nH]c2nc(Nc3cnc4c(c3)nnn4C(C)C)nc(N3CC(O)C3)c2c1Cl.O=C(O)C(F)(F)F [700,525] | > 64 µg/mL | > 64 µg/mL
7 | CCc1[nH]c2nc(Nc3cnc4c(c3)nnn4C(C)C)nc(N3CC(NC(=O)O)C3)c2c1Cl.O=C(O)C(F)(F)F [700,526] | > 64 µg/mL | 8 µg/mL
8 | CCc1[nH]c2nc(Nc3cnc4c(c3)nnn4C(C)C)nc(N3CC(N)C3)c2c1Cl.O=C(O)C(F)(F)F.O=C(O)C(F)(F)F [700,527] | 8 µg/mL | 16 µg/mL
9 | CCc1[nH]c2nc(Nc3cnc4c(c3)nnn4C(C)C)nc(N3CC[C@@H](N(C)C)C3)c2c1Cl.O=C(O)C(F)(F)F.O=C(O)C(F)(F)F [700,528] | 8 µg/mL | 8 µg/mL
10 | CCc1[nH]c2nc(Nc3ccc4c(N)nc(C)nc4c3)nc(N3CC(N)C3)c2c1Cl.O=C(O)C(F)(F)F.O=C(O)C(F)(F)F [700,531] | 4 µg/mL | 8 µg/mL
11 | CCc1[nH]c2nc(Nc3cnc4c(c3)nnn4C(C)C)nc(N(C)CCO)c2c1Cl.O=C(O)C(F)(F)F [700,534] | > 32 µg/mL | 2 µg/mL
12 | CCc1[nH]c2nc(Nc3cnc4c(c3)nnn4C(C)C)nc(OC)c2c1Br.O=C(O)C(F)(F)F [700,535] | 4 µg/mL | ≤ 0.5 µg/mL
13 | CCc1nc2c(N3CC(N)C3)nc(Sc3cnc4c(N)nc(C)nc4c3)nc2[nH]1 [700,538] | > 16 µg/mL | > 16 µg/mL
14 | CCc1[nH]c2nc(Sc3cnc4nccnc4c3)nc(N3CC(NCc4cccnc4)C3)c2c1Cl [700,539] | 1 µg/mL (≈ 1.98 µM) | ≤ 0.5 µg/mL
15 | CCc1[nH]c2nc(Sc3cnc4nccnc4c3)nc(N3CCC(N)C3)c2c1Cl (stereo not shown) [700,540] | 2 µg/mL (≈ 4.68 µM) | 1 µg/mL (≈ 2.34 µM)
16 | CCc1[nH]c2nc(Sc3cnc4nccnc4c3)nc(N3CCC(N)CC3)c2c1Cl [700,541] | 4 µg/mL (≈ 9.07 µM) | 4 µg/mL (≈ 9.07 µM)
17 | CCc1[nH]c2nc(Sc3cnc4nccnc4c3)nc(-n3ccnc3)c2c1Cl [700,542] | 8 µg/mL (≈ 19.6 µM) | 2 µg/mL (≈ 4.89 µM)
18 | CCOC(=O)Cc1nc(N2CCC(O)C2)c2c(Cl)c(CC)[nH]c2n1 (stereo not shown) [700,544] | > 64 µg/mL | > 64 µg/mL
19 | CCc1[nH]c2nc(Sc3cc(=O)n(C)c(=O)[nH]3)nc(N3CC(N)C3)c2c1Br.O=C(O)C(F)(F)F [700,545] | 4 µg/mL | 2 µg/mL
20 | CCc1[nH]c2nc(Sc3cnc4nccnc4c3)nc(N(C)Cc3cccnc3)c2c1Cl.O=C(O)C(F)(F)F [700,546] | 16 µg/mL | 4 µg/mL
21 | CCc1[nH]c2nc(Sc3cnc4nccnc4c3)nc(N3CCC4(CCCN4)C3)c2c1Cl (stereo not shown) [700,547] | 4 µg/mL (≈ 8.57 µM) | 4 µg/mL (≈ 8.57 µM)

Row | SMILES | MIC Spn52 [1] | MIC, SA [2]
22 | CCc1[nH]c2nc(Sc3cnc4nccnc4c3)nc(N3CC4CNC4C3)c2c1Cl.O=C(O)C(F)(F)F (stereo not shown) [700,548, 7-(4-(3,6-diazabicyclo[3.2.0]heptan-3-yl)-5-chloro-6-ethyl-7H-pyrrolo[2,3-d]pyrimidin-2-ylthio)pyrido[3,2-b]pyrazine] | 2 µg/mL | ≤ 0.5 µg/mL
23 | CCc1[nH]c2nc(Sc3cnc4nccnc4c3)nc(N3CC[C@H](NC)C3)c2c1Cl.O=C(O)C(F)(F)F [700,549] | 4 µg/mL | 4 µg/mL
24 | CCc1[nH]c2nc(Nc3cnc4c(c3)nnn4C(C)C)nc(OC)c2c1Cl.O=C(O)C(F)(F)F [700,550] | 8 µg/mL | 1 µg/mL
25 | CCc1[nH]c2nc(Oc3cncnc3)nc(Oc3cncnc3)c2c1Cl.O=C(O)C(F)(F)F [700,551] | 4 µg/mL | 2 µg/mL
26 | CCc1[nH]c2nc(Oc3cncnc3)nc(Oc3cncnc3)c2c1Br.O=C(O)C(F)(F)F [700,552] | 2 µg/mL | ≤ 0.5 µg/mL
27 | CCc1[nH]c2nc(Sc3cnc4nccnc4c3)nc(OS(=O)(=O)c3ccc(C)cc3)c2c1Cl [700,558] | > 64 µg/mL | 8 µg/mL (≈ 15.6 µM)
28 | CCc1[nH]c2nc(Sc3nc(C(=O)O)c(Cl)s3)nc(N3CCC(N)C3)c2c1Cl (stereo not shown) [700,559] | > 64 µg/mL | > 64 µg/mL
29 | CCc1[nH]c2nc(Sc3cccnc3)nc(N3CC(N)C3)c2c1Cl [700,560] | 32 µg/mL (≈ 88.7 µM) | 8 µg/mL (≈ 22.2 µM)
30 | CCc1[nH]c2nc(Sc3cnc(Oc4cccnc4)nc3)nc(N3CC(N)C3)c2c1Cl [700,561] | 32 µg/mL (≈ 70.3 µM) | 16 µg/mL (≈ 35.2 µM)
31 | CCc1[nH]c2nc(Sc3ccc[n+]([O-])c3)nc(N3CC(N)C3)c2c1Cl [700,562] | 64 µg/mL (≈ 170 µM) | 16 µg/mL (≈ 42.5 µM)
32 | CCc1[nH]c2nc(Sc3cnc4nccnc4c3)nc(N3CC4CCNC4C3)c2c1Cl.O=C(O)C(F)(F)F (stereo not shown) [700,563] | 2 µg/mL | 1 µg/mL
33 | CCc1[nH]c2nc(Sc3cnc4nccnc4c3)nc(N3CCC4CNCC43)c2c1Cl.O=C(O)C(F)(F)F (stereo not shown) [700,564] | 16 µg/mL | 8 µg/mL
34 | CCc1[nH]c2nc(Sc3cnc4nccnc4c3)nc(N3CC4CNCC4C3)c2c1Cl.O=C(O)C(F)(F)F (stereo not shown) [700,565] | 4 µg/mL | 2 µg/mL
35 | CCc1[nH]c2nc(Sc3cnc4nccnc4c3)nc(N3CC4CNCC43)c2c1Cl.O=C(O)C(F)(F)F (stereo not shown) [700,566] | 64 µg/mL | > 64 µg/mL
36 | CCc1[nH]c2nc(Sc3cnc4nccnc4c3)nc(N3CCC(NC)C3)c2c1Cl.O=C(O)C(F)(F)F (stereo not shown) [700,567] | 4 µg/mL | 7 µg/mL
37 | CCc1[nH]c2nc(Sc3cnc4nccnc4c3)nc(N3C[C@H]4CCCN[C@H]4C3)c2c1Cl.O=C(O)C(F)(F)F [700,568] | 2 µg/mL | ≤ 0.5 µg/mL
38 | CCc1[nH]c2nc(Sc3cnc4nccnc4c3)nc(N3CCCNCC3)c2c1Cl.O=C(O)C(F)(F)F [700,569] | 4 µg/mL | 8 µg/mL
39 | CCc1[nH]c2nc(Sc3cnc4nccnc4c3)nc(N(C)C[C@@H](O)c3cccc(O)c3)c2c1Cl.O=C(O)C(F)(F)F [700,570] | 8 µg/mL | 1 µg/mL
40 | CCc1[nH]c2nc(Sc3cnc4nccnc4c3)nc(N3CC4CN(C(=O)OC(C)(C)C)C4C3)c2c1Cl (stereo not shown) [700,571] | 8 µg/mL (≈ 14.8 µM) | 8 µg/mL (≈ 14.8 µM)
41 | CCOc1nc(Nc2cnc3nccnc3c2)nc2[nH]c(CC)c(Br)c12.O=C(O)C(F)(F)F [700,572] | > 8 µg/mL | 4 µg/mL
42 | CCc1[nH]c2nc(Nc3cnc4nccnc4c3)nc(N3CC(O)C3)c2c1Cl.O=C(O)C(F)(F)F [700,573] | > 64 µg/mL | > 64 µg/mL

Row | SMILES | MIC Spn52 [1] | MIC, SA [2]
43 | CCc1[nH]c2nc(Sc3cncnc3)nc(N3CC(N)C3)c2c1Cl [700,574] | 16 µg/mL (≈ 44.2 µM) | 4 µg/mL (≈ 11.1 µM)
44 | CCc1[nH]c2nc(Sc3ccc4c(NCC(C)O)ncnc4c3)nc(N3CCC(N)C3)c2c1Cl (stereo not shown) [700,575] | 16 µg/mL (≈ 32.1 µM) | 8 µg/mL (≈ 16 µM)
45 | CCc1[nH]c2nc(Sc3ccc4c(NC)ncnc4c3)nc(N3CCC(N)C3)c2c1Cl (stereo not shown) [700,576] | 16 µg/mL (≈ 35.2 µM) | 8 µg/mL (≈ 17.6 µM)
46 | O=C(O)C(F)(F)F.OCCc1[nH]c2nc(Oc3cccnc3)nc(Oc3cncnc3)c2c1Cl [700,577] | > 64 µg/mL | > 64 µg/mL
47 | CCc1[nH]c2nc(Oc3cncc(OC)c3)nc(Oc3cncc(OC)c3)c2c1Cl.O=C(O)C(F)(F)F [700,578] | 1 µg/mL | ≤ 0.5 µg/mL
48 | C=CCc1nc(Cc2cccnc2)nc2[nH]c(CC)c(Cl)c12 [700,584] | 32 µg/mL (≈ 102 µM) | 8 µg/mL (≈ 25.6 µM)
49 | CCc1[nH]c2nc(Cc3cccnc3)nc(N3CCC(CN)CC3)c2c1Cl [700,585] | > 64 µg/mL | > 64 µg/mL
50 | CCc1[nH]c2nc(Cc3cccnc3)nc(N3CCC(C(C)N4CCOCC4)CC3)c2c1Cl (stereo not shown) [700,586] | > 64 µg/mL | > 64 µg/mL
51 | CCc1[nH]c2nc(Cc3cccnc3)nc(N3CCC(N4CCOCC4)C3)c2c1Cl (stereo not shown) [700,587] | > 64 µg/mL | 64 µg/mL (≈ 150 µM)
52 | CCc1[nH]c2nc(Sc3cnc4nccnc4c3)nc(N3CCC[C@@H](N)C3)c2c1Cl [700,588] | 8 µg/mL (≈ 18.1 µM) | 8 µg/mL (≈ 18.1 µM)
53 | CCc1[nH]c2nc(Sc3cnc(N4CCC4)c(C#N)c3)nc(N3CCC(N)C3)c2c1Cl (stereo not shown) [700,589] | 8 µg/mL (≈ 17.6 µM) | 2 µg/mL (≈ 4.4 µM)
54 | CCc1[nH]c2nc(Sc3cnc(N4CC(O)C4)c(C#N)c3)nc(N3CCC(N)C3)c2c1Cl (stereo not shown) [700,590] | 16 µg/mL (≈ 34 µM) | 4 µg/mL (≈ 8.49 µM)
55 | CCc1[nH]c2nc(Oc3ccc(OC)nc3)nc(Oc3ccc(OC)nc3)c2c1Br.O=C(O)C(F)(F)F [700,591] | > 64 µg/mL | 2 µg/mL
56 | CCc1[nH]c2nc(Oc3ccc(OC)nc3)nc(Oc3ccc(OC)nc3)c2c1Cl.O=C(O)C(F)(F)F [700,592] | 4 µg/mL | > 64 µg/mL
57 | CCc1[nH]c2nc(Sc3cnc4nccnc4c3)nc(N3CC[C@@H](C)[C@@H](N)C3)c2c1Cl [700,595] | 8 µg/mL (≈ 17.6 µM) | 8 µg/mL (≈ 17.6 µM)
58 | CCc1[nH]c2nc(Sc3ccc(S(=O)(=O)NCCN4CCOCC4)cc3)nc(N3CC(N)C3)c2c1Cl [700,596] | 32 µg/mL (≈ 58 µM) | 32 µg/mL (≈ 58 µM)
59 | CCc1[nH]c2nc(Sc3ccc4c(N5CC(N)C5)ncnc4c3)nc(N3CCC(N)C3)c2c1Cl (stereo not shown) [700,597] | 16 µg/mL (≈ 32.3 µM) | 16 µg/mL (≈ 32.3 µM)
60 | CCc1[nH]c2nc(Oc3cccnc3)nc(Oc3cccnc3)c2c1Br.O=C(O)C(F)(F)F [700,598] | 2 µg/mL | 1 µg/mL
61 | CCc1[nH]c2nc(Nc3cnc4c(c3)nnn4C)nc(OC)c2c1Br.O=C(O)C(F)(F)F [700,599] | 2 µg/mL | ≤ 0.5 µg/mL
62 | CCOc1nc(Nc2cnc3c(c2)nnn3C)nc2[nH]c(CC)c(Br)c12.O=C(O)C(F)(F)F [700,600] | > 8 µg/mL | > 8 µg/mL
